Results on 1 compound are retold here after PMC4522657, “Identification of a DYRK1A Inhibitor that Induces Degradation of the Target Kinase using Co-chaperone CDC37 fused with Luciferase nanoKAZ” (Scientific Reports, 2015).

The target in one assay is T1, FGFR3(K650E) (Homo sapiens, UniProt P22607, K650E).
T1 construct: purchased Carna Biosciences
The assay is described as follows: Kinase panel, CaNDY 1 µM. Particulars: CaNDY 1 µM relative to DMSO. Format: biochemical.

The target in the next assay is T2, FLT1 (Homo sapiens, UniProt P17948).
T2 construct: purchased Carna Biosciences
Description: Kinase panel, CaNDY 1 µM. Format: biochemical. The settings on record: CaNDY 1 µM relative to DMSO.

A further assay deals with T3, FYN (Homo sapiens, UniProt P06241).
T3 construct: purchased Carna Biosciences
The assay is described as follows: Kinase panel, CaNDY 1 µM. In kind it is biochemical. Particulars: CaNDY 1 µM relative to DMSO.

The target of another assay is T4, INSR (Homo sapiens, UniProt P06213).
T4 construct: purchased Carna Biosciences
Description: Kinase panel, CaNDY 1 µM. Format: biochemical. The settings on record: CaNDY 1 µM relative to DMSO.

Another assay concerns the target T5, TNK1 (Homo sapiens, UniProt Q13470).
T5 construct: purchased Carna Biosciences
Description: Kinase panel, CaNDY 1 µM. Format: biochemical. The settings on record: CaNDY 1 µM relative to DMSO.

The target in a further assay is T6, GSK3α (Homo sapiens, UniProt P49840).
T6 construct: purchased Carna Biosciences
The assay is described as follows: Kinase panel, CaNDY 1 µM. Format: biochemical. Particulars: CaNDY 1 µM relative to DMSO.

Another assay has as its target T7, PAK1 (Homo sapiens, UniProt Q13153).
T7 construct: purchased Carna Biosciences
Description: Kinase panel, CaNDY 1 µM. In kind it is biochemical. The settings on record: CaNDY 1 µM relative to DMSO.

Another assay deals with T8, PIM2 (Homo sapiens, UniProt Q9P1W9).
T8 construct: purchased Carna Biosciences
Description: Kinase panel, CaNDY 1 µM. Format: biochemical. The settings on record: CaNDY 1 µM relative to DMSO.

The target of a further assay is T9, PKCγ (Homo sapiens, UniProt P05129).
T9 construct: purchased Carna Biosciences
The assay is described as follows: Kinase panel, CaNDY 1 µM. Particulars: CaNDY 1 µM relative to DMSO. In kind it is biochemical.

The next assay addresses T10, endogenous DYRK1A (Homo sapiens, UniProt Q13627).
T10 construct: endogenous in cells; host or cells: HEK293
The assay is described as follows: Western blot of endogenous DYRK1A protein in HEK293 cells. Format: cell-based. The settings on record: CaNDY 2 μM, 4 days. The method, then: We investigated whether CaNDY destabilizes DYRK1A as ganetespib does. […] Next we examined whether CaNDY decreased endogenous DYRK1A protein. HEK293 cells were cultured for 0–4 days with CaNDY (2 μM) and then subjected to SDS-PAGE followed by Western blot analysis using antibodies against DYRK1A and GAPDH. […] The treated cells were also subjected to reverse transcription followed by quantitative PCR analysis.
(§1) Western blot analysis was performed using the antibodies described above. In brief, total cell lysates were separated by SDS-PAGE (5–20% gels; ATTO, Tokyo, Japan) under reducing conditions and then transferred to a PVDF membrane (PALL, SP, Brazil). Antibody reactions were performed with Can Get Signal® Immunoreaction Enhancer Solution (Toyobo). Peroxidase activities on the membrane were visualized with ECL Western Blotting Detection Reagents (GE Healthcare) or ImmunoStar® LD (Wako Pure Chemical Industries, Osaka, Japan), and a ChemiDoc^TM MP Imaging System (Bio-Rad, Hercules, CA, USA).
A general note: A western blot detects proteins with antibodies after separation by electrophoresis.

For assay [1], the target named is T11, pre-accumulated 3xFLAG-DYRK1A (Homo sapiens, UniProt Q13627).
T11 construct: F2A peptide linking to EGFP (2A skipping releases EGFP; a 2A remnant may stay on DYRK1A) (C); expressed in transfected cells; host or cells: HEK293
Description: Pre-accumulated DYRK1A after cycloheximide, Western blot in HEK293 cells. In kind it is cell-based. The settings on record: cycloheximide 1 mg/mL pre-treatment, CaNDY 2 µM, 0-24 h. The protocol:
as §1
Targeting the DYRK1A/CDC37 complex
HEK293 cells were transfected with an expression vector for 3xFLAG-DYRK1A. At 48 h after transfection, the cells were pre-treated with 1 mg/mL cycloheximide (CHX) to stop protein synthesis, and then treated with CaNDY (2 µM) for the indicated time (0-24 h). The total cell lysates were subjected to SDS-PAGE followed by Western blot analysis.
(1 picture or pasted object on this page, not shown here)

A further assay addresses CLK1 (Homo sapiens, UniProt P49759). Description: Kinase panel, CaNDY 1 µM. Format: biochemical. Details: purchased Carna Biosciences. From the text:
Detailed information on the assay conditions is available on the website of Carna Biosciences (http://www.carnabio.com/english/index.html; Kobe, Japan). In brief, full-length human recombinant kinases were expressed using a baculovirus expression system as amino-terminal GST-fusion proteins, and purified by glutathione-Sepharose chromatography. The GenBank accession numbers of DYRK1A, DYRK1B, DYRK2, and DYRK3 were NP_001387.2, NP_004705.1, NP_003574.1, and NP_003573.2. […] For each compound, a DMSO solution was diluted in assay buffer to yield a final concentration of 1% DMSO. After incubation for one hour at room temperature, substrate phosphorylation was analyzed by electrophoretic separation of the substrate and products using a Caliper LC3000 platform (Caliper Life Sciences, Mountain View, CA, USA). The phosphorylated product (P)/(P + substrate) ratio was calculated at each concentration of each small molecule and the percent inhibition was expressed relative to a control assay in the absence of the small molecule. […] The IC50 of each compound was calculated by interpolation on a log-concentration-response curve fitted with a four-parameter logistic equation.
All kinase assays were carried out at Carna Biosciences. The inhibitory map was made with Kinome Render[36].

Structures are written as SMILES.

CLK1, sequence (P49759 whole entry, the tested form may be a part): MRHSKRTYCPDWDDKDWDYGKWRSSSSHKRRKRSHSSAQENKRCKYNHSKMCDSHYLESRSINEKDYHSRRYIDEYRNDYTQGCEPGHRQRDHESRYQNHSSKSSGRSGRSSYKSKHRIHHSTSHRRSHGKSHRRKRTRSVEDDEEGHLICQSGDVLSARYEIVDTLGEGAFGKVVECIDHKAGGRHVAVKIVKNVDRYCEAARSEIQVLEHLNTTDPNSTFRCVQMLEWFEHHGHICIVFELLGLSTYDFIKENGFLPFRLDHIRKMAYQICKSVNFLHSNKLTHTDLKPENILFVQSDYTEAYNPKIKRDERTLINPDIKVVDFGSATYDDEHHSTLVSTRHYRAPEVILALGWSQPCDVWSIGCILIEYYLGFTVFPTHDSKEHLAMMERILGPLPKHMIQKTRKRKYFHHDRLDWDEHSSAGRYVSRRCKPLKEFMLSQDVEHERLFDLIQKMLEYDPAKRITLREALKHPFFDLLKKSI
T8 sequence (Q9P1W9 whole entry): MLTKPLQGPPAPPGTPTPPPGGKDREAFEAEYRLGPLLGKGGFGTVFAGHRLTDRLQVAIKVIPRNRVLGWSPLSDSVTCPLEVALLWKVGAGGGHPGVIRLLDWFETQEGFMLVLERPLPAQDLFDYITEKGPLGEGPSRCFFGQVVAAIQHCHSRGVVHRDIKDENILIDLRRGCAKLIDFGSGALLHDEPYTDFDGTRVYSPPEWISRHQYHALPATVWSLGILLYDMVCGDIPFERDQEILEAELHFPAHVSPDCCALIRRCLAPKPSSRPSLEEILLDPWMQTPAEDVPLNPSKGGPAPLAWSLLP
T1 sequence (P22607 23-806 K650E): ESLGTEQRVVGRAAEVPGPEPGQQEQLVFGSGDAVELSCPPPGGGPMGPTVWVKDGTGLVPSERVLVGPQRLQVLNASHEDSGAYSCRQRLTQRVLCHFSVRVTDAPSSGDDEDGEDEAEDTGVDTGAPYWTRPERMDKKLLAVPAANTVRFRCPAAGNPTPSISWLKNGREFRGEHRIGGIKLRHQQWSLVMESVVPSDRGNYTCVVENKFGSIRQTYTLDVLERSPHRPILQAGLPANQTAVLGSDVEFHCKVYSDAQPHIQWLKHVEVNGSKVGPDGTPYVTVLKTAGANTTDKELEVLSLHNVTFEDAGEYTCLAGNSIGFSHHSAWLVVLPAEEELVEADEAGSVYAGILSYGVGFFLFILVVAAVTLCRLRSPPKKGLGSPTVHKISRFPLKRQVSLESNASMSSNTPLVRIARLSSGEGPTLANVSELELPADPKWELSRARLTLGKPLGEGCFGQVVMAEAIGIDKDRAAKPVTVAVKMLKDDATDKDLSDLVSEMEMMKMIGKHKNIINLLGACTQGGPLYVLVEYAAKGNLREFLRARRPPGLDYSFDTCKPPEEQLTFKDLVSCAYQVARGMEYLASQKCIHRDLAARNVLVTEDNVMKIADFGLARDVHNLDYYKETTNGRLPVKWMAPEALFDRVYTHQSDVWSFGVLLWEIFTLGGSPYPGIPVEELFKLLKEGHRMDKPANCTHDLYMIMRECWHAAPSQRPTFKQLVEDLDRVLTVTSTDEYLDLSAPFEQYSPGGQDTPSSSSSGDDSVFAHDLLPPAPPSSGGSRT
T2 sequence (P17948 27-1338): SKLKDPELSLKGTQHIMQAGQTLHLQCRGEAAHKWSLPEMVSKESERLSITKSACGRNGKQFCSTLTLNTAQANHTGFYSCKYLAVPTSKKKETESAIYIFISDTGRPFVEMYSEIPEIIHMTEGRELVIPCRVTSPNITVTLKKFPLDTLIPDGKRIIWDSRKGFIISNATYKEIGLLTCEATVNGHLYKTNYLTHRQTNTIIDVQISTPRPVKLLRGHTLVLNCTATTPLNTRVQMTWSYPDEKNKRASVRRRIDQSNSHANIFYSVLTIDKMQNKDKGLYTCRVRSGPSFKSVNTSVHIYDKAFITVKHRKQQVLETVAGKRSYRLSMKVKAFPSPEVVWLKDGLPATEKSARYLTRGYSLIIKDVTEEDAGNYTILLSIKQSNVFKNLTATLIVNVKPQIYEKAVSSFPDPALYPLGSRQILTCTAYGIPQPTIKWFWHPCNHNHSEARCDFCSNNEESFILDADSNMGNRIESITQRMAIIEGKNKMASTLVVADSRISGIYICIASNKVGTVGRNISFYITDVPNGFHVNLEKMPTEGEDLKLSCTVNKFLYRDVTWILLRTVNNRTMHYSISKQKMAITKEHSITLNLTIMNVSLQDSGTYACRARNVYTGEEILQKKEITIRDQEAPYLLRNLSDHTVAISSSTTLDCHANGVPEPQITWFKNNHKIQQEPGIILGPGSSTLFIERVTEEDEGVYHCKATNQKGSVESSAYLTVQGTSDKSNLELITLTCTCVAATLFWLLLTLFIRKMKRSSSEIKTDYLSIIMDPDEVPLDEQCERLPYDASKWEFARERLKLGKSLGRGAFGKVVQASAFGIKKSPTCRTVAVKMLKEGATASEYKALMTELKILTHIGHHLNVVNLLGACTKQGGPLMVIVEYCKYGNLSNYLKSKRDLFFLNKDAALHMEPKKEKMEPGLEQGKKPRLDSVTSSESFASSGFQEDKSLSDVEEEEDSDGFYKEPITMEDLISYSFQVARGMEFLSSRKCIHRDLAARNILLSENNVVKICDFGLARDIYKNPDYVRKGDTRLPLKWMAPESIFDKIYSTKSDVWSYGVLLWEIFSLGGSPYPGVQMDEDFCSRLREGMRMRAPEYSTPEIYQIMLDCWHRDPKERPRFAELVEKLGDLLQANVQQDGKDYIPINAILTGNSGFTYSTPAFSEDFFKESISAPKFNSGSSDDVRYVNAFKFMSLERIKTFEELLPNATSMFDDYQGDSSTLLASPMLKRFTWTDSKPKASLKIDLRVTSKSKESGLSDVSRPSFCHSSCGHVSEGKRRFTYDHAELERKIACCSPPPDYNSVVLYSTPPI
T6 sequence (P49840 whole entry): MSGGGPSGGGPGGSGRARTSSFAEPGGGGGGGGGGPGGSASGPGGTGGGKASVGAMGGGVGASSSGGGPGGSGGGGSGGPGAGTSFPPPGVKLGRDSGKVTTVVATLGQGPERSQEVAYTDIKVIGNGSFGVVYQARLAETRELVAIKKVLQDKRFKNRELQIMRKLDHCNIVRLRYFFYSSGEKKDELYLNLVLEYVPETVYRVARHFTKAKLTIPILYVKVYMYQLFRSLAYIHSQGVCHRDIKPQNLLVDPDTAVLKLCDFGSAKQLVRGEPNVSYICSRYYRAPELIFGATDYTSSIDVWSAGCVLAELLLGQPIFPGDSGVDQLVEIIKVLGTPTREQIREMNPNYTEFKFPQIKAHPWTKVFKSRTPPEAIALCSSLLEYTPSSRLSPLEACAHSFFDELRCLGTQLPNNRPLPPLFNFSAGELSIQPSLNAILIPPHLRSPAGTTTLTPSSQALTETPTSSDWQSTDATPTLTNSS
T3 sequence (P06241 whole entry): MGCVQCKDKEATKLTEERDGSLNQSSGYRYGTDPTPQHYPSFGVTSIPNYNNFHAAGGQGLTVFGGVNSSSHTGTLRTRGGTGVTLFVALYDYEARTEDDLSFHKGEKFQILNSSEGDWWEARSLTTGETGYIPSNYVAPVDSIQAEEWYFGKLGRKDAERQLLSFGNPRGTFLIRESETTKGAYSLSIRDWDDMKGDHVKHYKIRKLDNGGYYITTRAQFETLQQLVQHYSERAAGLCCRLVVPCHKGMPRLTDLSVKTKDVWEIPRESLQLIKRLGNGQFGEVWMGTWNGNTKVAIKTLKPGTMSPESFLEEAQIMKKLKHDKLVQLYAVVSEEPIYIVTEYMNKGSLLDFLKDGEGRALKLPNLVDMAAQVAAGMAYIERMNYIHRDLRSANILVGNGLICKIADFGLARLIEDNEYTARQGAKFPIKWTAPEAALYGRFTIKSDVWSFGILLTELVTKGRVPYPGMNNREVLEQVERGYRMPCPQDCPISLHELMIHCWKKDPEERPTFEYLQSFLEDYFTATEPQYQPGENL
T7 sequence (Q13153 whole entry): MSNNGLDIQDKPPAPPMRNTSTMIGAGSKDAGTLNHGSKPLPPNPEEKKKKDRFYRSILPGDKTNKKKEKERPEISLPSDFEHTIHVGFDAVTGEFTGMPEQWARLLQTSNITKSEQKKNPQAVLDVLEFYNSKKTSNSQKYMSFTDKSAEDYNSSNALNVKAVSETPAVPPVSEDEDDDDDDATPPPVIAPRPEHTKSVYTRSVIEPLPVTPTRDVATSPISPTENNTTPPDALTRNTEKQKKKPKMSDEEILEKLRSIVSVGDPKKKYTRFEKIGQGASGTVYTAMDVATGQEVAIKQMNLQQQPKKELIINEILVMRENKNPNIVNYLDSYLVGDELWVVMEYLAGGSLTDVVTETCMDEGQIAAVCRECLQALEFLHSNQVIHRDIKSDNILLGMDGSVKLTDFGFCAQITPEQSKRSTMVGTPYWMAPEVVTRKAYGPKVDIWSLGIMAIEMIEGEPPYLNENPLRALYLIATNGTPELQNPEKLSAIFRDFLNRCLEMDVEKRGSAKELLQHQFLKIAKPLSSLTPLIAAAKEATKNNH

In the case of `[H]/N=C1/NC(=O)C(=Cc2ccc3c(c2)CCO3)S1` [CaNDY, (Z)-5-[(2,3-dihydrobenzofuran-5-yl)methylene]-2-iminothiazolidin-4-one], the remaining activity at 1 µM turned out to be 101% on FGFR3(K650E); 102% at FLT1; 102% at FYN; 103% on INSR; 99.7% on TNK1; 76.6% on GSK3α. Also, the remaining activity at 1 µM on PAK1 came to 98.6%; on PIM2, 71.6%; at PKCγ, 90.6%. Further, the “accumulation of endogenous DYRK1A” value on endogenous DYRK1A was “prevented accumulation of endogenous DYRK1A”. For the same compound, the “protein expression of DYRK1A (reassessed)” value on endogenous DYRK1A (Fig. 7d) is “decreased expression”. The “pre-accumulated DYRK1A level” value in assay [1] is reported as “did not decrease pre-accumulated DYRK1A”. Further, the “%Activity” value on CLK1 (CLK1, CaNDY 1 µM relative to DMSO) stood at 3.0%. For the same compound, the inhibition at 1 µM at CLK1 (read-out: percentage inhibition) was above 90%.

The term remaining activity denotes the signal under treatment as a percentage of the control signal. For orientation: inhibition means the drop in the measured response relative to a control, in per cent.
